ChEMBL document CHEMBL5030570, “Factor XI Activation Inhibitors for Treating Thrombosis, Embolisms, Hypercoagulability, and Fibrotic Changes” (ACS Med Chem Lett, 2022)

Target: Coagulation factor XI (Homo sapiens, UniProt P03951)
Test: Inhibition of human coagulation factor 11 assessed as inhibition of factor 12a mediated activation using z-GPR-AFC measured after 60 mins by fluorescence assay

Coagulation factor XI, sequence (P03951 19-387 limits assumed): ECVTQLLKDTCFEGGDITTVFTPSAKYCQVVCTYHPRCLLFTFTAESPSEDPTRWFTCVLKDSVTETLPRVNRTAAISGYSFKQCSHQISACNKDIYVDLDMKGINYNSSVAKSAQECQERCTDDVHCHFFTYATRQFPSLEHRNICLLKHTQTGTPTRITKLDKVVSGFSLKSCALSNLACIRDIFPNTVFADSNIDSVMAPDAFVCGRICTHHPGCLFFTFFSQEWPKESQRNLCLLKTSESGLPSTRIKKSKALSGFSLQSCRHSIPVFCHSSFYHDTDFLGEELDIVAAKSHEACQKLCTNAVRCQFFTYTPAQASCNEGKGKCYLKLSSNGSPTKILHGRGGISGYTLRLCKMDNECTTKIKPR
Coagulation factor XI, sequence (P03951 388-625 limits assumed): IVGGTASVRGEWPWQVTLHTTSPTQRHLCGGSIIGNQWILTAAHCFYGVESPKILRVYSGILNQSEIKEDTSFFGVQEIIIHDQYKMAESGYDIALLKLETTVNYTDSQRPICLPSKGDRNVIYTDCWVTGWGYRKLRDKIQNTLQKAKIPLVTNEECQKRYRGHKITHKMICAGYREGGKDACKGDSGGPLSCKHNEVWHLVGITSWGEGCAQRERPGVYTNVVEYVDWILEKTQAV

## Cc1cnn(C2CCN(C(=O)c3cc(C(=O)N4CCCCC4)c4cc(OCc5ncc(C(F)(F)F)cc5Cl)ncc4c3)CC2)c1
  EC50: 3.8 nM
